Experimental data published in the supplement of paper PMC10307832.

What follows are cell lines tested with O=C(Nc1cc(C(F)(F)F)cc(C(F)(F)F)c1)c1cc(Cl)ccc1O [IMD-0354] + C[C@@H](Oc1cc(-c2cnn(C3CCNCC3)c2)cnc1N)c1c(Cl)ccc(F)c1Cl [Crizotinib] (partner 1 µM) (assay: relative viability (nuclei count vs DMSO), 5 days (fraction); higher = more cells survive). Settings: first compound 4 µM.
Outline: (§1)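 Nuclei were stained with Hoechst during a one-step fixation (final 0.05% Triton X-100, 1% formaldehyde, 1 ug/ml Hoechst) carried out 5 days after dosing, then counted on 4× images. The cells, lung cancer lines in 1536-well plates, had been dosed by pin tool the day after seeding with one drug alone or a fixed anchor-drug dose plus five library-drug doses (not always all listed) in √10 steps. Relative viability is the nuclei count in treated wells divided by that in vehicle wells, and each value is the median of duplicate plates.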
EBC-1 showed a relative viability of 0.177.
Cell Line NCI-H1703 has a relative viability of 0.215.
In the case of Calu-6, the relative viability is reported as 0.164.
Work on LK-2 yielded a relative viability of 0.244.
IA-LM showed a relative viability of 0.142.
NCI-H358 showed a relative viability of 0.348.
A549 gave a relative viability of 0.121.
In the case of NCI-H1299, the relative viability is reported as 0.166.
Cell Line CAL-12T has a relative viability of 0.214.
For NCI-H2228, the relative viability was 0.22.
Cell Line NCI-H1944 has a relative viability of 0.157.
NCI-H1563 showed a relative viability of 0.44.
Work on NCI-H2170 yielded a relative viability of 0.33.
With ABC-1 the relative viability was 0.269.
For SK-MES-1, the relative viability was 0.252.

The cell lines below were run with Cc1cnc(CNC(=O)c2c(=O)c3ccc(N4CCCN(C)CC4)nc3n3c2sc2ccccc23)cn1 [CX-5461] + CC(=O)Nc1cccc(-n2c(=O)n(C3CC3)c(=O)c3c(Nc4ccc(I)cc4F)n(C)c(=O)c(C)c32)c1 [Trametinib] (partner 0.02 µM) in the same assay as above. Settings: first compound 0.01 µM.
Outline: as §1
Cell Line NCI-H522 has a relative viability of 0.734.
NCI-H727 was tested, and the relative viability was 0.375.
With NCI-H1650 the relative viability was 0.564.
NCI-H1395 gave a relative viability of 1.09.
With NCI-H2342 the relative viability was 0.787.
For LK-2, the relative viability was 0.83.
Work on NCI-H358 yielded a relative viability of 0.125.
SW 900 was tested, and the relative viability was 0.664.
NCI-H1648 gave a relative viability of 0.47.
NCI-H1793 was tested, and the relative viability was 0.386.
For CAL-12T, the relative viability was 0.367.
With NCI-H2228 the relative viability was 0.553.
Cell Line NCI-H1944 has a relative viability of 0.47.
NCI-H2170 was tested, and the relative viability was 0.987.
SK-MES-1 showed a relative viability of 0.641.

Same assay, conditions: first compound 0.03162 µM
For NCI-H522, the relative viability was 0.86.
Work on NCI-H727 yielded a relative viability of 0.389.
For NCI-H1650, the relative viability was 0.447.
NCI-H1395 gave a relative viability of 0.821.
Work on NCI-H2342 yielded a relative viability of 0.81.
In the case of LK-2, the relative viability is reported as 0.818.
In the case of NCI-H358, the relative viability is reported as 0.108.
SW 900 was tested, and the relative viability was 0.84.
NCI-H1648 was tested, and the relative viability was 0.514.
In the case of NCI-H1793, the relative viability is reported as 0.519.
Cell Line CAL-12T has a relative viability of 0.297.
In the case of NCI-H2228, the relative viability is reported as 0.489.
NCI-H1944 gave a relative viability of 0.406.
In the case of NCI-H2170, the relative viability is reported as 0.976.
Cell Line SK-MES-1 has a relative viability of 0.595.

Same assay, conditions: first compound 0.1 µM
NCI-H522 was tested, and the relative viability was 0.815.
NCI-H727 gave a relative viability of 0.4.
NCI-H1650 showed a relative viability of 0.532.
With NCI-H1395 the relative viability was 1.07.
For NCI-H2342, the relative viability was 0.832.
Work on LK-2 yielded a relative viability of 0.834.
For NCI-H358, the relative viability was 0.0974.
NCI-H1648 gave a relative viability of 0.488.
Cell Line NCI-H1793 has a relative viability of 0.364.
In the case of CAL-12T, the relative viability is reported as 0.302.
Cell Line NCI-H2228 has a relative viability of 0.418.
Work on NCI-H1944 yielded a relative viability of 0.419.
NCI-H2170 gave a relative viability of 0.971.
Cell Line SK-MES-1 has a relative viability of 0.562.

Same assay, conditions: first compound 0.3162 µM
Cell Line NCI-H727 has a relative viability of 0.356.
Work on NCI-H1650 yielded a relative viability of 0.678.
With NCI-H1395 the relative viability was 0.741.
NCI-H2342 was tested, and the relative viability was 0.871.
In the case of LK-2, the relative viability is reported as 0.707.
With NCI-H358 the relative viability was 0.102.
SW 900 was tested, and the relative viability was 0.548.
In the case of NCI-H1648, the relative viability is reported as 0.534.
Work on NCI-H1793 yielded a relative viability of 0.411.
CAL-12T showed a relative viability of 0.344.
Work on NCI-H2228 yielded a relative viability of 0.432.
NCI-H1944 showed a relative viability of 0.314.
For NCI-H2170, the relative viability was 0.952.
For SK-MES-1, the relative viability was 0.533.

Same assay, conditions: first compound 1 µM
With NCI-H522 the relative viability was 0.751.
For NCI-H727, the relative viability was 0.379.
NCI-H1650 gave a relative viability of 0.207.
With NCI-H1395 the relative viability was 0.71.
With NCI-H2342 the relative viability was 0.918.
Work on LK-2 yielded a relative viability of 0.725.
With NCI-H358 the relative viability was 0.0846.
In the case of SW 900, the relative viability is reported as 0.829.
In the case of NCI-H1648, the relative viability is reported as 0.509.
NCI-H1793 showed a relative viability of 0.353.
Cell Line CAL-12T has a relative viability of 0.181.
Cell Line NCI-H2228 has a relative viability of 0.236.
NCI-H1944 showed a relative viability of 0.448.
Cell Line NCI-H2170 has a relative viability of 0.862.
Cell Line SK-MES-1 has a relative viability of 0.44.

What follows are cell lines tested with Cc1cnc(CNC(=O)c2c(=O)c3ccc(N4CCCN(C)CC4)nc3n3c2sc2ccccc23)cn1 [CX-5461] + CC(C)C[C@H](NC(=O)[C@H](Cc1ccccc1)NC(=O)c1cnccn1)B(O)O [Bortezomib] (partner 0.002 µM) in the same assay as above. Settings: first compound 0.01 µM.
Outline: as §1
NCI-H727 showed a relative viability of 1.03.
NCI-H1650 gave a relative viability of 0.202.
EBC-1 was tested, and the relative viability was 0.591.
For NCI-H1703, the relative viability was 0.31.
Cell Line Calu-6 has a relative viability of 1.16.
IA-LM gave a relative viability of 0.785.
In the case of NCI-H1299, the relative viability is reported as 1.
CAL-12T gave a relative viability of 0.941.
With NCI-H2228 the relative viability was 0.934.
NCI-H1563 was tested, and the relative viability was 0.894.
ABC-1 showed a relative viability of 0.297.

Same assay, conditions: first compound 0.03162 µM
NCI-H727 showed a relative viability of 0.812.
In the case of NCI-H1650, the relative viability is reported as 0.191.
For EBC-1, the relative viability was 0.619.
Cell Line NCI-H1703 has a relative viability of 0.378.
Work on Calu-6 yielded a relative viability of 1.06.
IA-LM gave a relative viability of 0.795.
NCI-H1299 was tested, and the relative viability was 0.981.
With CAL-12T the relative viability was 0.92.
For NCI-H2228, the relative viability was 0.797.
NCI-H1563 was tested, and the relative viability was 0.788.
ABC-1 was tested, and the relative viability was 0.282.

Same assay, conditions: first compound 0.1 µM
Work on NCI-H727 yielded a relative viability of 0.596.
With EBC-1 the relative viability was 0.466.
NCI-H1703 was tested, and the relative viability was 0.318.
Work on Calu-6 yielded a relative viability of 0.907.
For IA-LM, the relative viability was 0.734.
For NCI-H1299, the relative viability was 1.05.
CAL-12T was tested, and the relative viability was 0.909.
NCI-H2228 showed a relative viability of 0.455.
Cell Line NCI-H1563 has a relative viability of 0.632.

Same assay, conditions: first compound 0.3162 µM
NCI-H727 gave a relative viability of 0.718.
NCI-H1650 gave a relative viability of 0.19.
EBC-1 gave a relative viability of 0.49.
In the case of NCI-H1703, the relative viability is reported as 0.337.
Calu-6 was tested, and the relative viability was 1.12.
IA-LM gave a relative viability of 0.877.
NCI-H1299 was tested, and the relative viability was 1.04.
CAL-12T was tested, and the relative viability was 1.17.
NCI-H2228 was tested, and the relative viability was 0.819.
Work on NCI-H1563 yielded a relative viability of 0.742.
In the case of ABC-1, the relative viability is reported as 0.206.

Same assay, conditions: first compound 1 µM
In the case of NCI-H727, the relative viability is reported as 0.662.
NCI-H1650 gave a relative viability of 0.175.
With EBC-1 the relative viability was 0.423.
Cell Line NCI-H1703 has a relative viability of 0.154.
For Calu-6, the relative viability was 0.382.
IA-LM gave a relative viability of 0.355.
With NCI-H1299 the relative viability was 0.979.
Cell Line CAL-12T has a relative viability of 0.831.
Work on NCI-H2228 yielded a relative viability of 0.126.
NCI-H1563 gave a relative viability of 0.499.
In the case of ABC-1, the relative viability is reported as 0.313.
